Results reported in ChEMBL document CHEMBL1833944, “Conformationally constrained farnesoid X receptor (FXR) agonists: alternative replacements of the stilbene” (Bioorg Med Chem Lett, 2011).

Experiments:
[1] = Volume of distribution at steady state in rat at 1 mg/kg, iv; assay type: ADME, organism-based; design: dose 1 mg/kg, route intravenous; conditions: in vivo, read-out: Vdss
[2] = Clearance in rat at 1 mg/kg, iv; assay type: ADME, organism-based; design: dose 1 mg/kg, route intravenous; conditions: in vivo
Rattus norvegicus = experiment: Dose normalized AUC in rat at 5 mg/kg, po; assay type: ADME, organism-based; design: dose 5 mg/kg, route oral; conditions: in vivo
[3] = target: T1, Bile acid receptor (Homo sapiens) (UniProt Q96RI1); experiment: Agonist activity at human amino-terminal polyhistidine-tagged FXR alpha LBD (amino acids 237 to 472) assessed as maximum efficacy measuring cofactor peptide SRC-1 interaction with receptor ligand binding domain after 2 hrs by FRET assay relative to GW4064
T1 sequence (whole entry): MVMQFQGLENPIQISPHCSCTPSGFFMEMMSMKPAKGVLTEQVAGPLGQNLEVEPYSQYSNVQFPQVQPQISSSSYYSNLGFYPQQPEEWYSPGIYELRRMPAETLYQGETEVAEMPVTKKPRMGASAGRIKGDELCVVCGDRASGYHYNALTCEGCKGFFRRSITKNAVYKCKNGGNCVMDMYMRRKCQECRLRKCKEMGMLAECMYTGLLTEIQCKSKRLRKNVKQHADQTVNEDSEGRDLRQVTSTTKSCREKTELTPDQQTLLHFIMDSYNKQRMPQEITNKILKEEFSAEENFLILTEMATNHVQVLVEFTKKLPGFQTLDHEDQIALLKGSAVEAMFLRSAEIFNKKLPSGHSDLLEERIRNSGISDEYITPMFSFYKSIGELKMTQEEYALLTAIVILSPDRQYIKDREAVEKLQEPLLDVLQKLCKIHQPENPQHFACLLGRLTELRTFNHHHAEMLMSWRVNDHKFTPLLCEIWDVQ

Bile acid receptor [4] = target: T2, Bile acid receptor (Homo sapiens, UniProt Q96RI1); experiment: Agonist activity at human amino-terminal polyhistidine-tagged FXR alpha LBD (amino acids 237 to 472) assessed as cofactor peptide SRC-1 interaction with receptor ligand binding domain after 2 hrs by FRET assay
T2 sequence (Q96RI1 whole entry): T1 sequence (whole entry)

[5] = Oral bioavailability in rat at 5 mg/kg; assay type: ADME, organism-based; conditions: in vivo
[6] = target: T1, Bile acid receptor (Homo sapiens); experiment: Agonist activity at human FXR LBD transfected in african green monkey CV1 cells assessed as maximum efficacy after overnight incubation by luciferase reporter gene assay relative to GW4064; assay type: functional, cell-based; conditions: CV-1
Bile acid receptor [7] = target: T2, Bile acid receptor; experiment: Agonist activity at human FXR LBD transfected in african green monkey CV1 cells after overnight incubation by luciferase reporter gene assay; assay type: functional, cell-based, CV-1
[8] = Terminal half life in rat at 1 mg/kg, iv; assay type: ADME, organism-based; design: dose 1 mg/kg, route intravenous; conditions: in vivo, read-out: beta t1/2
[9] = Selectivity for human FXR over PPAR alpha receptor
[10] = Selectivity for human FXR over PPAR gamma receptor
[11] = Selectivity for human FXR over LXR beta receptor
[12] = Inhibition of Cytochrome P450; assay type: ADME
[13] = Selectivity for human FXR over PPAR delta receptor
[14] = Selectivity for human FXR over PXR receptor
[15] = Selectivity for human FXR over LXR alpha receptor

| Compound | Vd [1] | clearance [2] | AUC/dose (Rattus norvegicus) | Emax [3] | EC50 (Bile acid receptor [4]) | bioavailability [5] | Emax [6] | EC50 (Bile acid receptor [7]) | half-life [8] | fold change (FC) [9] | fold change (FC) [10] | fold change (FC) [11] | IC50 [12] | fold change (FC) [13] | fold change (FC) [14] | fold change (FC) [15] |
| --- | --- | --- | --- | --- | --- | --- | --- | --- | --- | --- | --- | --- | --- | --- | --- | --- |
| CC(C)c1onc(-c2c(Cl)cccc2Cl)c1COc1ccc(-c2ccc3cc(C(=O)O)[nH]c3c2)cc1 | 0.5 L/kg | 30 mL/min/kg | 16 ng·kg·h/mL/mg | 96% | 210 nM | 3% | 69% | 140 nM | 1.17 h |  |  |  |  |  |  |  |
| CC(C)c1onc(-c2c(Cl)cccc2Cl)c1COc1ccc(-c2ccc3oc(C(=O)O)cc3c2)cc1 | 1.7 L/kg | 78 mL/min/kg | 43 ng·kg·h/mL/mg | 93% | 51 nM | 20% | 90% | 130 nM | 1.02 h |  |  |  |  |  |  |  |
| CC(C)c1onc(-c2c(Cl)cccc2Cl)c1COc1ccc(/C=C/c2cccc(C(=O)O)c2)c(Cl)c1 |  |  |  | 100% |  |  | 100% |  |  |  |  |  |  |  |  |  |
| CC(C)c1onc(-c2c(Cl)cccc2Cl)c1COc1ccc(-c2ccc3c(C(=O)O)csc3c2)cc1 | 0.73 L/kg | 50 mL/min/kg | 0 ng·kg·h/mL/mg | 115% | 21 nM | 0% | 81% | 24 nM | 0.367 h |  |  |  |  |  |  |  |
| CC(C)c1onc(-c2c(Cl)cccc2Cl)c1COc1ccc(-c2ccc3c(c2)CC(C(=O)O)C3)cc1 (stereo not given) |  |  |  | 75% | 750 nM |  | 59% | 490 nM |  |  |  |  |  |  |  |  |
| CC(C)c1onc(-c2c(Cl)cccc2Cl)c1COc1ccc(-c2ccc3c(C(=O)O)cccc3c2)cc1 |  |  |  | 134% |  |  | 104% |  |  |  |  |  |  |  |  |  |
| CC(C)c1onc(-c2c(Cl)cccc2Cl)c1COc1ccc(-c2ccc3sc(C(=O)O)cc3n2)cc1 |  |  |  | 53% | 670 nM |  | 82% | 1700 nM |  |  |  |  |  |  |  |  |
| CC(C)c1onc(-c2c(Cl)cccc2Cl)c1COc1ccc(-c2ccc3sc(C(=O)O)cc3c2)cc1 |  |  |  | 77% | 250 nM |  | 91% | 530 nM |  |  |  |  |  |  |  |  |
| CC(C)c1onc(-c2c(Cl)cccc2Cl)c1COc1ccc(-c2ccc3c(c2)CCCC3C(=O)O)cc1 (stereo not given) |  |  |  | 72% | 550 nM |  | 68% | 750 nM |  |  |  |  |  |  |  |  |
| CC(C)c1onc(-c2c(Cl)cccc2Cl)c1COc1ccc(-c2ccc3c(C(=O)O)c[nH]c3c2)cc1 | 1.2 L/kg | 76 mL/min/kg | 11 ng·kg·h/mL/mg | 107% | 20 nM | 5.1% | 35% | 31 nM | 0.433 h | > 100 | > 100 | > 100 | > 5000 nM | > 100 | > 100 | > 100 |
| CC(C)c1onc(-c2c(Cl)cccc2Cl)c1COc1ccc(-c2ccc3[nH]c(C(=O)O)cc3c2)cc1 | 1.3 L/kg | 55 mL/min/kg | 22 ng·kg·h/mL/mg | 81% | 88 nM | 7.1% | 78% | 110 nM | 1.48 h |  |  |  |  |  |  |  |
| CC(C)c1onc(-c2c(Cl)cccc2Cl)c1COc1ccc(Cn2ccc3ccc(C(=O)O)cc32)cc1 |  |  |  | 38% | 1000 nM |  | 42% | 500 nM |  |  |  |  |  |  |  |  |
| CC(C)c1onc(-c2c(Cl)cccc2Cl)c1COc1ccc(-c2ccc3nc(C(=O)O)ccc3c2)cc1 | 3.4 L/kg | 32 mL/min/kg | 130 ng·kg·h/mL/mg | 105% |  |  | 102% |  | 2.83 h |  |  |  |  |  |  |  |
| CC(C)c1onc(-c2c(Cl)cccc2Cl)c1COc1ccc(-c2nc3cccc(C(=O)O)c3[nH]2)cc1 |  |  |  | 61% | 1200 nM |  | 36% | 1300 nM |  |  |  |  |  |  |  |  |
| CC(C)c1onc(-c2c(Cl)cccc2Cl)c1COc1ccc(Sc2cccc3sc(C(=O)O)cc23)cc1 |  |  |  | 72% | 190 nM |  | 59% | 990 nM |  |  |  |  |  |  |  |  |
